Laboratory results taken from US20030050248A1 (priority 2000, published 2003).
≈ marks a conversion by molar mass, not a printed value.

How the values were obtained:
S. aureus [1] = system: S. aureus
S. aureus [2] = experiment: microbe, parasite or virus in culture; conditions: Staphylococcus aureus, Erythrocyte, in Oryctolagus cuniculus, read-out: IC50 (relative activity), text b100/b101; assay not named, values match the α-hemolysin column of Table 4
RNAIII = assay type: cell-based, S. aureus
S. aureus [3] = experiment: Mouse model, Staph mixed with drug prior to IP injection; assay type: in vivo, mice; conditions: mixed with Staph prior to IP injection
Experimental: (§1) The assay was carried out by injecting a fixed amount of a S. aureus culture, typically containing from about 5×10^9 cells from an early exponential growth stage culture, by intraperitoneal (IP) injection into mice, based on the method described by Thakker et al., 1998.
In one study, the S. aureus was mixed with VIF-1 or FTB, prior to IP injection.

S. aureus [4] = experiment: Mouse model, Staph injected IP 20 min prior to drug injection (IP); assay type: in vivo, mice; conditions: 20 min after Staph
Experimental: as §1
In another approach, S. aureus was injected IP 20 minutes prior to IP injection of VIF-1 or FTB.
The commonly used anti-Staphylococcal antibiotics, methicillin and vancomycin, were tested in this model.

SMILES | IC50 (relative activity) (S. aureus [1]) | Inhibition of α-Hemolysin production (S. aureus [1]) | further results
O=C(O)CC(NC(=O)OCC1c2ccccc2-c2ccccc21)c1ccc(Br)cc1 (racemic) [(R,S)-Fmoc-3-amino-3-(4-bromophenyl)-propionic acid] | 1.0 µg | – | –
O=C(O)[C@H]1[C@H](c2ccccc2)CN1C(=O)OCC1c2ccccc2-c2ccccc21 (racemic) [Reference #104, Racemic Fmoc-trans-3-phenyl-azetidine-2-carboxylic acid] | 3.9 µg | – | –
O=C(O)CC(NC(=O)OCC1c2ccccc2-c2ccccc21)c1ccc(Br)cc1 (racemic) [Reference #127, (R,S)-Fmoc-3-amino-3-(4-bromophenyl)-propionic acid] | – | 1.4 (3) μg/ml | –
O=C(O)[C@@H]1CC[C@H](c2ccccc2)N1C(=O)OCC1c2ccccc2-c2ccccc21 [(2S,5R)-Fmoc-5-phenyl-pyrrolidine-2-carboxylic acid] | 1.0 µg | – | –
O=C(O)CC[C@H](Cc1ccccc1)NC(=O)OCC1c2ccccc2-c2ccccc21 [(R)-Fmoc-4-amino-5-phenyl-pentanoic acid] | 1.7 µg | – | –
O=C(NC1(C(=O)O)CCCCC1)OCC1c2ccccc2-c2ccccc21 [Fmoc-1-amino-1-cyclohexane carboxylic acid] | 0.9 µg | – | –
O=C(N[C@@H](Cc1ccc2ccccc2c1)C(=O)O)OCC1c2ccccc2-c2ccccc21 [Fmoc-3-(2-naphthyl)alanine] | – | – | IC50 (S. aureus [2]): 4.2 µg/mL (≈ 9.6 µM)
CC(C)(C)OC(=O)n1cc(C[C@@H](NC(=O)OCC2c3ccccc3-c3ccccc32)C(=O)O)c2ccccc21 [Fmoc-D-Trp(Boc)-OH] | 1.0 µg | – | –
O=C(N[C@@H](C(=O)O)c1ccccc1)OCC1c2ccccc2-c2ccccc21 [Fmoc-D-phenylglycine] | – | – | IC50 (S. aureus [2]): 5.5 µg/mL (≈ 14.7 µM)
C[C@H](NC(=O)OCC1c2ccccc2-c2ccccc21)C(=O)O [Fmoc-L-Ala-OH] | 6.5 µg | – | –
O=C(N[C@@H](Cc1ccccc1)C(=O)O)OCC1c2ccccc2-c2ccccc21 [Fmoc-L-Phe-OH] | 1.3 µg | – | –
CC(C)(C)OC(=O)n1cc(C[C@H](NC(=O)OCC2c3ccccc3-c3ccccc32)C(=O)O)c2ccccc21 [Fmoc-L-Trp(Boc)-OH] | 1.2 µg | – | –
O=C(N[C@@H](Cc1c[nH]c2ccccc12)C(=O)O)OCC1c2ccccc2-c2ccccc21 [Fmoc-L-Trp-OH] | 9 µg | – | –
CC(C)[C@H](NC(=O)OCC1c2ccccc2-c2ccccc21)C(=O)O [Fmoc-L-Val-OH] | 4.2 µg | – | –
O=C(O)[C@@H]1CCN1C(=O)OCC1c2ccccc2-c2ccccc21 [Fmoc-L-azetidine-2-carboxylic acid] | 12 µg | – | –
O=C(N[C@H](C(=O)O)c1ccccc1)OCC1c2ccccc2-c2ccccc21 [Fmoc-L-phenylglycine] | – | – | IC50 (S. aureus [2]): 5 µg/mL (≈ 13.4 µM)
O=C(N[C@@H](CC1CCCCC1)C(=O)O)OCC1c2ccccc2-c2ccccc21 [Fmoc-beta-cyclohexyl-L-alanine] | – | – | IC50 (S. aureus [2]): 4 µg/mL (≈ 10.2 µM)

SMILES | IC50 (relative activity) (S. aureus [1]) | Inhibition of α-Hemolysin production (S. aureus [1]) | further results
O=C(O)[C@H]1Cc2c([nH]c3ccccc23)CN1C(=O)OCC1c2ccccc2-c2ccccc21 [Reference #18, Fmoc-D-1,2,3,4-tetrahydronorharman-3-carboxylic acid] | – | 2.0 (5) μg/ml | –
O=C(N[C@@H](Cc1ccccc1)C(=O)O)OCC1c2ccccc2-c2ccccc21 [Reference #32, Fmoc-L-Phe-OH] | – | 1.3 µg/mL | Inhibition of RNA III activation (RNAIII): >2.5 µg/mL
O=C(N[C@@H](Cc1c[nH]c2ccccc12)C(=O)O)OCC1c2ccccc2-c2ccccc21 [Reference #34, Fmoc-L-Trp-OH] | – | 9.0 µg/mL | Inhibition of RNA III activation (RNAIII): >2.5 µg/mL
CC(C)[C@H](NC(=O)OCC1c2ccccc2-c2ccccc21)C(=O)O [Reference #38, Fmoc-L-Val-OH] | – | 1.5 µg/mL | Inhibition of RNA III activation (RNAIII): >2.5 µg/mL
O=C(N[C@@H](Cc1cnc[nH]1)C(=O)O)OCC1c2ccccc2-c2ccccc21 [Reference #42, Fmoc-L-His] | – | 47 µg/mL | –
CC(C)(C)OC(=O)n1cnc(C[C@H](NC(=O)OCC2c3ccccc3-c3ccccc32)C(=O)O)c1 [Reference #43, Fmoc-L-His(Boc)-OH] | – | >50 µg/mL | –
CC(C)(C)OC(=O)n1cc(C[C@H](N)C(=O)O)c2ccccc21 [Reference #45, H-L-Trp(Boc)-OH] | – | >50 µg/mL | Inhibition of RNA III activation (RNAIII): >10.0 µg/mL
C[C@H](NC(=O)OCC1c2ccccc2-c2ccccc21)C(=O)O [Reference #52, Fmoc-L-Ala-OH] | – | 6.5 µg/mL | –
CC(C)C[C@H](NC(=O)OCC1c2ccccc2-c2ccccc21)C(=O)O [Reference #67, Fmoc-L-Leu-OH] | – | 2.1 (4) μg/ml | –
O=C(NCCCC[C@H](NC(=O)OCC1c2ccccc2-c2ccccc21)C(=O)O)OCc1ccccc1 [Reference #69, Fmoc-L-Lys(Z)-OH] | – | 2.8 (4) μg/ml | Inhibition of RNA III activation (RNAIII): 4.7 (3) μg/ml
CC(C)(C)OC(=O)n1cc(C[C@@H](NC(=O)OCC2c3ccccc3-c3ccccc32)C(=O)O)c2ccccc21 [Reference #78, Fmoc-D-Trp(Boc)-OH] | – | 1.3 (5) μg/ml | –
O=C(N[C@@H](Cc1ccc(Cl)cc1)C(=O)O)OCC1c2ccccc2-c2ccccc21 [Reference #92, Fmoc-4-chloro-L-D-phenylalanine] | – | 1.6 (5) μg/ml | –
O=C(O)[C@@H]1CCN1C(=O)OCC1c2ccccc2-c2ccccc21 [Reference #120, Fmoc-L-azetidine-2-carboxylic acid] | – | 12.0 µg/mL | –
O=C(O)CC[C@H](Cc1ccccc1)NC(=O)OCC1c2ccccc2-c2ccccc21 [Reference #126, (R)-Fmoc-4-amino-5-phenyl-pentanoic acid] | – | 1.7 (4) μg/ml | Inhibition of RNA III activation (RNAIII): 9.0 (2) μg/ml
N[C@@H](Cc1c[nH]c2ccccc12)C(=O)O [Trp, reference compound] | – | – | % Survival at 24 hr. (S. aureus [3]; 1 mg/kg): 0%; % Survival at 24 hr. (S. aureus [3]; 5 mg/kg): 33%
COc1cccc(OC)c1C(=O)N[C@@H]1C(=O)N2[C@@H]1SC(C)(C)[C@@H]2C(=O)O [methicillin, reference compound] | – | – | % Survival at 24 hr. (S. aureus [4]; 1 mg/kg IP): 17%; % Survival at 24 hr. (S. aureus [4]; 10 mg/kg IP): 50%; % Survival at 24 hr. (S. aureus [4]; 100 mg/kg IP): 100%
CN[C@H](CC(C)C)C(=O)N[C@H]1C(=O)N[C@@H](CC(N)=O)C(=O)N[C@H]2C(=O)N[C@H]3C(=O)N[C@H](C(=O)N[C@H](C(=O)O)c4cc(O)cc(O)c4-c4cc3ccc4O)[C@H](O)c3ccc(c(Cl)c3)Oc3cc2cc(c3O[C@@H]2O[C@H](CO)[C@@H](O)[C@H](O)[C@H]2O[C@H]2C[C@](C)(N)[C@H](O)[C@H](C)O2)Oc2ccc(cc2Cl)[C@H]1O [vancomycin, reference compound] | – | – | % Survival at 24 hr. (S. aureus [4]; 0.5 mg/kg IP): 17%; % Survival at 24 hr. (S. aureus [4]; 5 mg/kg IP): 50%; % Survival at 24 hr. (S. aureus [4]; 50 mg/kg IP): 100%
